Data on 26 compounds can be found in patent US20240417412A1, “HETEROCYCLIC COMPOUNDS AND METHODS OF USE” (AMGEN INC., priority 2022, published 2024).

Assay [1] concerns the target KRAS G12D (Homo sapiens, UniProt P01116, C118A/G12D). Kind of assay: KRAS G12D Coupled Nucleotide Exchange Assay. Particulars: GDP-bound KRAS G12D/C118A, 2 hours pre-incubation, SOS-mediated nucleotide exchange, AlphaScreen. In kind it is biochemical. The protocol:
The assay plates were then read on a PerkinElmer EnVision Multilabel Reader, using AlphaScreen® technology, and data were analyzed using a 4-parameter logistic model to calculate IC50 values.
For orientation: Alpha assays give light when donor and acceptor beads are brought close together.

Assay [2] has as its target KRAS G12D (Homo sapiens, UniProt P01116, G12D). The assay is described as follows: KRAS G12D TR-FRET Assay. Particulars: His-tagged KRAS G12D, biotinylated KRPep-2d, read-out: KRAS G12D Binding IC50. The protocol:
The plate was incubated for 30 minutes at room temperature. Biotinylated KRPep-2d substrate (Amgen) was diluted to 20 nM in Assay Buffer and 2 uL was added to all wells and incubated for 1 hour at room temperature. Detection Reagent (0.4 nM LANCE Eu-W1024 Anti-6×His (Perkin Elmer AD0401), 5 nM streptavidin-d2 (Cisbio 610SADLA)) was prepared in Assay Buffer, then 4 μL was added to the plate and incubated for 1 hour at room temperature.
A general note: Time-resolved FRET reads energy transfer from a long-lived donor to a nearby acceptor.

A further assay has as its system p-ERK (AsPC-1 cells). Kind of assay: Phospho-ERK1/2 MSD Assay. It is filed as cell-based. On the procedure:
Sixteen hours prior to compound treatment, AsPC-1 cells were seeded in 96-well cell culture plates at a density of 25,000 cells/well and incubated at 37° C., 5% CO2. A compound dose-response titration was diluted in growth media, added to appropriate wells of a cell culture plate, and then incubated at 37° C., 5% CO2 for 2 hours. […] Phosphorylation of ERK1/2 in compound-treated lysates was assayed using Phospho-ERK1/2 Whole Cell Lysate kits (Meso Scale Discovery K151DWD) according to the manufacturer's protocol. Assay plates were read on a Meso Scale Discovery Sector Imager 6000, and data were analyzed using a 4-parameter logistic model to calculate IC50 values.

Setting [3] is: Homo sapiens, ASPC1, 2 h, read-out: 2 h p-ERK (AsPC-1 cells), IC50 (μM), AsPC-1 cells, 2 hours compound treatment.
Where [4] appears, read: read-out: 2 h p-ERK (AsPC-1 cells), IC50, AsPC-1 cells, 2 hours compound treatment.

SMILES strings stand for the structures. Like-named read-outs stand apart in the source and are kept apart here.

Sequence of KRAS G12D (Homo sapiens, UniProt P01116, C118A/G12D) (P01116 1-169 isoform P01116-2 G12D/C118A): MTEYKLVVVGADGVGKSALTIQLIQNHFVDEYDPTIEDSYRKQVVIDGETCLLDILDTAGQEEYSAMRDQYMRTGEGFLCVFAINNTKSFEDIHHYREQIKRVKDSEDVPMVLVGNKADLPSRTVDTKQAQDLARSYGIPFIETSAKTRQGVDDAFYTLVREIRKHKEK
Sequence of KRAS G12D (Homo sapiens, UniProt P01116, G12D) (P01116 1-188 isoform P01116-2 G12D): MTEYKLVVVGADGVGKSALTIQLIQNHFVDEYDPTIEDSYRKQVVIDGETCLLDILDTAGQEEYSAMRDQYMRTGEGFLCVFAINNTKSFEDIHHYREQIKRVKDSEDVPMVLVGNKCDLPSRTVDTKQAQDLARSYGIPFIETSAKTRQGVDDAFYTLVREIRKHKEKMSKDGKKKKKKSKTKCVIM

With `Oc1cc(-c2ncc3c(N4CCCC5(CC(O)C5)C4)nc(OC[C@@]45CCCN4C[C@H](F)C5)nc3c2F)c2c(F)c(F)ccc2c1` (single isomer, unassigned) [Example 11], the IC50 against KRAS G12D [1] worked out at 2 nM; on KRAS G12D [2], 2 nM; with p-ERK (AsPC-1 cells) (setting [3]), 0.119 µM.
On to `Oc1cc(-c2ncc3c(N4CCCC5(CC(O)C5)C4)nc(OC[C@@]45CCCN4C[C@H](F)C5)nc3c2F)c2c(F)c(F)ccc2c1` (single isomer, unassigned) [Example 12], for which the 50% inhibitory concentration (IC50) against KRAS G12D [1] came to 2 nM; at KRAS G12D [2] it was 2 nM; in the assay with p-ERK (AsPC-1 cells) (setting [4]) it was 0.121 µM.
`CCc1cccc2cc(O)cc(-c3ncc4c(N5CCCC6(CC(O)C6)C5)nc(OC[C@@]56CCCN5C[C@H](F)C6)nc4c3F)c12` (single isomer, unassigned) [Example 13]: the IC50 on KRAS G12D [1] came out at 1 nM; at KRAS G12D [2], 2 nM; with p-ERK (AsPC-1 cells) (setting [3]) it was 0.022 µM.
With `Oc1cc(Cl)c(C2CC2)c(-c2ncc3c(N4CCCC5(CC(O)C5)C4)nc(OC[C@@]45CCCN4C[C@H](F)C5)nc3c2F)c1` (single isomer, unassigned) [Example 14], the IC50 was 1 nM against KRAS G12D [1], 1 nM at KRAS G12D [2] and 0.164 µM with p-ERK (AsPC-1 cells) (setting [3]).
On to `C#Cc1c(F)ccc2cc(O)cc(-c3ncc4c(N5CCCC6(CNC(=O)O6)C5)nc(OC[C@@]56CCCN5C[C@H](F)C6)nc4c3F)c12` (single isomer, unassigned) [Example 17], for which the IC50 came to 1 nM on KRAS G12D [1], 1 nM at KRAS G12D [2] and 0.123 µM in the assay on p-ERK (AsPC-1 cells) (setting [3]).
For the compound `O=C1NCC2(CCCN(c3nc(OC[C@@]45CCCN4C[C@H](F)C5)nc4c(F)c(-c5cc(O)cc6ccc(F)c(F)c56)ncc34)C2)O1` (single isomer, unassigned) [Example 18], the IC50 against KRAS G12D [1] came out at 1 nM; on KRAS G12D [2], 1 nM; with p-ERK (AsPC-1 cells) (setting [3]), 0.31 µM.
As to `CCc1cccc2cc(O)cc(-c3ncc4c(N5CCCC6(CCO6)C5)nc(OC[C@@]56CCCN5C[C@H](F)C6)nc4c3F)c12` (single isomer, unassigned) [Example 23], the IC50 was 3 nM against KRAS G12D [1], 2 nM at KRAS G12D [2] and 0.011 µM with p-ERK (AsPC-1 cells) (setting [3]).
As for `Oc1cc(-c2ncc3c(N4CCCC5(CCO5)C4)nc(OC[C@@]45CCCN4C[C@H](F)C5)nc3c2F)c2c(F)c(F)ccc2c1` (single isomer, unassigned) [Example 24], the IC50 at KRAS G12D [1] stood at 2 nM; on KRAS G12D [2] it was 1 nM; in the assay on p-ERK (AsPC-1 cells) (setting [3]), 0.009 µM.
For `C#Cc1c(F)ccc2cc(O)cc(-c3ncc4c(N5CCCC6(CCO6)C5)nc(OC[C@@]56CCCN5C[C@H](F)C6)nc4c3F)c12` (single isomer, unassigned) [Example 25], the IC50 was determined as 1 nM on KRAS G12D [1], 1 nM on KRAS G12D [2] and 0.043 µM in the assay with p-ERK (AsPC-1 cells) (setting [3]).
`CCc1c(F)ccc2cc(O)cc(-c3ncc4c(N5CCCC6(CCS(=O)(=O)C6)C5)nc(OC[C@@]56CCCN5C[C@H](F)C6)nc4c3F)c12` (single isomer, unassigned) [Example 34]: the IC50 turned out to be 12 nM at KRAS G12D [1], 9 nM at KRAS G12D [2] and 2.19 µM in the assay with p-ERK (AsPC-1 cells) (setting [4]).
In the same order, the values of `CCc1c(F)ccc2cc(O)cc(-c3ncc4c(N5CCCC6(CCS(=O)(=O)C6)C5)nc(OC[C@@]56CCCN5C[C@H](F)C6)nc4c3F)c12` (single isomer, unassigned) [Example 35] are 3 nM, 2 nM and 0.06 µM.
On to `C#Cc1c(F)ccc2cc(O)cc(-c3ncc4c(N5CCCC6(CCS(=O)(=O)C6)C5)nc(OC[C@@]56CCCN5C[C@H](F)C6)nc4c3F)c12` (single isomer, unassigned) [Example 36], for which the IC50 worked out at 2 nM at KRAS G12D [1], 2 nM on KRAS G12D [2] and 1.11 µM in the assay on p-ERK (AsPC-1 cells) (setting [3]).
As for `CCc1c(F)ccc2cc(O)cc(-c3ncc4c(N5CCCC6(CNC6=O)C5)nc(OC[C@@]56CCCN5C[C@H](F)C6)nc4c3F)c12` (single isomer, unassigned) [Example 45], the figures for the IC50 against KRAS G12D [1], on KRAS G12D [2] and in the assay with p-ERK (AsPC-1 cells) (setting [3]) were 5 nM, 3 nM and 0.161 µM, respectively.
In the case of `CCc1c(F)ccc2cc(O)cc(-c3ncc4c(N5CCCC6(CCC6O)C5)nc(OC[C@@]56CCCN5C[C@H](F)C6)nc4c3F)c12` (single isomer, unassigned) [Example 49], the IC50 turned out to be 13 nM against KRAS G12D [1], 7 nM on KRAS G12D [2] and 0.576 µM with p-ERK (AsPC-1 cells) (setting [3]).
Regarding `CCc1c(F)ccc2cc(O)cc(-c3ncc4c(N5CCCC6(C5)CC(C)(O)C6)nc(OC[C@@]56CCCN5C[C@H](F)C6)nc4c3F)c12` (single isomer, unassigned) [Example 56], the IC50 at KRAS G12D [1] was 6 nM; on KRAS G12D [2] it was 4 nM; in the assay with p-ERK (AsPC-1 cells) (setting [4]), 0.343 µM.
In the same order, the values of `CCc1c(F)ccc2cc(O)cc(-c3ncc4c(N5CCCC6(C5)CC(C)(O)C6)nc(OC[C@@]56CCCN5C[C@H](F)C6)nc4c3F)c12` (single isomer, unassigned) [Example 57] are 10 nM, 6 nM and 0.131 µM.
On to `Oc1cc(-c2ncc3c(N4CCC[C@]5(CCO5)C4)nc(OC[C@@]45CCCN4C[C@H](F)C5)nc3c2F)c2c(Cl)c(F)ccc2c1` (single isomer, unassigned) [Example 58], for which the IC50 against KRAS G12D [1] came out at 1 nM; on KRAS G12D [2] it was 1 nM; in the assay on p-ERK (AsPC-1 cells) (setting [3]), 0.003 µM.
Consider `Oc1cc(-c2ncc3c(N4CCCC5(CCO5)C4)nc(OC[C@@]45CCCN4C[C@H](F)C5)nc3c2F)c2c(Cl)cccc2c1` (single isomer, unassigned) [Example 59], for which the IC50 was found to be 2 nM against KRAS G12D [1], 3 nM at KRAS G12D [2] and 0.006 µM in the assay with p-ERK (AsPC-1 cells) (setting [3]).
In the same order, the values of `CCc1c(F)ccc2cc(O)cc(-c3ncc4c(N5CCCC6(CCO6)C5)nc(OC[C@@H]5C[C@@H](F)CN5C)nc4c3F)c12` (single isomer, unassigned) [Example 60] are 3 nM, 6 nM and 0.019 µM.
For `CCc1c(F)ccc2cc(O)cc(-c3ncc4c(N5CCCC6(CCO6)C5)nc(OC[C@@]56CCCN5C[C@H](F)C6)nc4c3C)c12` (single isomer, unassigned) [Example 61], the IC50 stood at 4 nM at KRAS G12D [1], 10 nM on KRAS G12D [2] and 0.007 µM in the assay on p-ERK (AsPC-1 cells) (setting [3]).
On the same counts, the results for `CCc1c(F)ccc2cccc(-c3ncc4c(N5CCCC6(CNC(=O)O6)C5)nc(OC[C@@]56CCCN5C[C@H](F)C6)nc4c3F)c12` (single isomer, unassigned) [Example 63] are 2 nM, 4 nM and 0.026 µM.
On the same counts, the results for `CCc1c(F)ccc2cc(O)cc(-c3ncc4c(N5CCCC6(CCC(=O)O6)C5)nc(OC[C@@]56CCCN5C[C@H](F)C6)nc4c3F)c12` (single isomer, unassigned) [Example 66] are 1 nM, 3 nM and 0.03 µM.
Regarding `CCc1c(F)ccc2cc(O)cc(-c3ncc4c(N5CCCC6(COC(=O)O6)C5)nc(OC[C@@]56CCCN5C[C@H](F)C6)nc4c3F)c12` (single isomer, unassigned) [Example 67], the values for the IC50 on KRAS G12D [1], on KRAS G12D [2] and in the assay with p-ERK (AsPC-1 cells) (setting [4]) were 2 nM, 4 nM and 0.06 µM, respectively.
In the same order, the values of `CCc1c(F)ccc2cc(O)cc(-c3ncc4c(N5CCCC6(COC(=O)O6)C5)nc(OC[C@@]56CCCN5C[C@H](F)C6)nc4c3F)c12` (single isomer, unassigned) [Example 68] are 11 nM, 23 nM and 1.58 µM.
Take `CCc1c(F)ccc2cc(O)cc(-c3ncc4c(N5CC(O)CC6(CCC6)C5)nc(OC[C@@]56CCCN5C[C@H](F)C6)nc4c3F)c12` (stereo partly drawn) [Example 1, 6-(7-(8-Ethyl-7-fluoro-3-hydroxynaphthalen-1-yl)-8-fluoro-2-(((2R,7aS)-2-fluorotetrahydro-1H-pyrrolizin-7a(5H)-yl)methoxy)pyrido[4,3-d]pyrimidin-4-yl)-6-azaspiro[3.5]nonan-8-ol]: the IC50 on KRAS G12D [1] worked out at 4 nM; on KRAS G12D [2], 3 nM; with p-ERK (AsPC-1 cells) (setting [3]), 0.329 µM.
Turning to `CCc1c(F)ccc2cc(O)cc(-c3ncc4c(N5CCOC6(CC6)C5)nc(OC[C@@]56CCCN5C[C@H](F)C6)nc4c3F)c12` [Example 2, 5-Ethyl-6-fluoro-4-(8-fluoro-2-(((2R,7aS)-2-fluorotetrahydro-1H-pyrrolizin-7a(5H)-yl)methoxy)-4-(4-oxa-7-azaspiro[2.5]octan-7-yl)pyrido[4,3-d]pyrimidin-7-yl)naphthalen-2-ol], the IC50 against KRAS G12D [1] was determined as 4 nM; on KRAS G12D [2], 8 nM; with p-ERK (AsPC-1 cells) (setting [3]), 0.523 µM.

The term IC50 denotes the concentration that inhibits the measured activity by half.
